Laboratory results published in US20150225454A1, “TETRABRANCHED PEPTIDES AND ANALOGUES AS A NEW CLASS OF ANTIMICROBIALS AND THEIR PREPARATION THEREOF” (priority 2012, published 2015).
≈ marks a conversion by molar mass, not a printed value. Like-named read-outs stand apart in the source and are kept apart here. Where a SMILES comes first, the peptide text is derived from it. Bridges are numbered along the chain shown (N, C = ends). Roman numbers before positions name the chains, in order.

How the values were obtained:
[1] = system: C. albicans (ATCC 10231 and DF2672R); assay type: cell-based; settings: for time to 4 log reduction (99.99%) in viable cells: ATCC strain
Procedure: The time-kill kinetics was measured for two strains of C. albicans (ATCC 10231 and DF2672R). The cultures were grown overnight in SD broth and the cell concentration was adjusted to 10^5-10^6 CFU/ml with phosphate buffer. The peptide or antifungals were added to the individual cultures. […] The test solution was incubated at 37° C. with constant shaking. 100 μL of the suspension is withdrawn at predetermined time points, serially diluted (10^2 or 10^3 fold) and poured into the SDA plate. The plate was incubated for 48 h at 37° C. for colony counting. The data were expressed in terms of % cell viability relative to the positive control.

C. albicans = assay type: cell-based; settings: 50% tear fluid
Procedure: For all the experiments, unless otherwise stated, ATCC 10231 strain was used. B4010 (1 mg/ml) was incubated with trypsin (enzyme:peptide ratio 1:100) at 37° C. 20 μL aliquot of this mixture was withdrawn at various time intervals (0.5, 1, 2, 4 and 6 h) and mixed with 1 μL of trypsin inhibitor. The antifungal activity of the peptide was determined by adding this mixture to 180 μl of inoculum and monitoring the growth at OD600 for 24 h. Similar experiments performed in the presence of trypsin/trypsin inhibitor (without B4010) were used as a positive control. For assessing the antifungal activity in tear fluid (TF), the peptide was dissolved in freshly collected rabbit TF and incubated at 37° C. for 6 h. After incubation, an equal volume of an overnight culture of C. albicans (˜10^6 CFU/ml) was mixed with peptides in tear fluid and incubated at 37° C. for 24 h. The final concentrations of the peptide were at 4.4, 8.8 and 22 μM. A 100 μL aliquot of serial dilutions (10^2 or 10^3 times) of this mixture were inoculated on a SD agar plate and then incubated for 48 h at 37° C. Culture alone and culture with 50% tear fluid served as the positive control. The data was expressed in % killing with respect to culture without tear fluid.

[2] = system: C. albicans 2672R and C. albicans 1976R; assay type: cell-based; settings: two clinical isolates
Procedure: The effect of 5% human serum on the activities of B4010 against two C. albicans clinical isolates was determined. The human male serum was centrifuged at 13,000 rpm for 10 mins in order to remove the lipids and the supernatant was collected. The MIC values against clinical isolates of C. albicans 2672R and C. albicans 1976R were determined both in standard medium (SD broth) as well as in standard medium containing 5% serum supernatant as before.

S. cerevisiae = assay type: cell-based
Procedure: A few identical colonies from WT and mutant strains were immediately inoculated and grown overnight in SD broth containing 0.1 mg/ml ampicilin at 30° C. Cells were harvested by centrifugation, washed with sterile water and frozen. Cells were plated again on SD agar plates and incubated at 37° C. for 48 h. Two or three identical colonies of the mutant strains were collected and inoculated in SD broth. Peptides were dissolved in sterile water and mixed with WT and mutant strains and incubated at 37° C. for 48 or 72 h in a test tube. The lowest concentration of the peptide that inhibited the growth of the yeast strain was determined by visual inspection.

C. albicans (ATCC 10231) = experiment: SYTOX Green (SG) uptake assay; assay type: cell-based
[3] = Calcein release from fungal model membrane SUVs; settings: peptide:lipid ratio 1:30 and 1:15
Procedure: For the preparation of PC/PE/PI or PS/Erg SUV, the lipids were dissolved in chloroform/methanol (2:1, v/v) in a glass tube. Ergosterol was dissolved in same solvent and added to lipid mixture to make final ergosterol content of 15 wt %. The Lipid-ergosterol mixture was dried using nitrogen gas to form lipid layer. The film was hydrated in a buffer containing 20 mM PBS (pH 7), vortexed and sonicated. Each cycle of sonication (5 sec, 40° C.) is followed by freezing in liquid nitrogen and thawing on a water bath kept at 37° C. The procedure was repeated 5-6 times until an optically clear dispersion appeared. The SUV was divided into two parts. To the first part 50 mM calcein was added and incubated for 1 h. The excess calcein was removed by injecting 100 μL of the calcein-loaded SUV's into a Ultrahydrogel™ 250 (7.8 mm×300 mm) column equilibrated with 20 mM PBS (pH 7.0) and eluted isochratically at a flow rate of 1 ml/min for 1.5 column volumes. The calcein-loaded liposomes were mixed with calcein-free liposome (1:1) to adjust final liposome concentration. Peptide concentration was added to obtain 1:30 or 1:15 peptide:liposome ratio. Changes in the fluorescence signal after addition of peptide or Triton X-100 was measured on a PTI spectrofluorometer, using an excitation wavelength of 480 nm and emission wavelength of 512 nm. The Percentage calcein released at each time point was calculated using the equation: […]
Similar protocol was followed for the preparation of PC/Cholesterol SUVs.

SMILES: CC(C)[C@H](NC(=O)[C@H](CCCCN)NC(=O)[C@H](CCCNC(=N)N)NC(=O)CNC(=O)[C@@H](N)CCCNC(=N)N)C(=O)N[C@H](C(=O)N[C@@H](CCCNC(=N)N)C(=O)N[C@@H](CCCNC(=N)N)C(=O)NCCCC[C@H](NC(=O)[C@H](CCCNC(=N)N)NC(=O)[C@H](CCCNC(=N)N)NC(=O)[C@@H](NC(=O)[C@@H](NC(=O)[C@H](CCCCN)NC(=O)[C@H](CCCNC(=N)N)NC(=O)CNC(=O)[C@@H](N)CCCNC(=N)N)C(C)C)C(C)C)C(=O)NCCCC[C@H](NC(=O)[C@H](CCCCNC(=O)[C@H](CCCNC(=N)N)NC(=O)[C@H](CCCNC(=N)N)NC(=O)[C@@H](NC(=O)[C@@H](NC(=O)[C@H](CCCCN)NC(=O)[C@H](CCCNC(=N)N)NC(=O)CNC(=O)[C@@H](N)CCCNC(=N)N)C(C)C)C(C)C)NC(=O)[C@H](CCCNC(=N)N)NC(=O)[C@H](CCCNC(=N)N)NC(=O)[C@@H](NC(=O)[C@@H](NC(=O)[C@H](CCCCN)NC(=O)[C@H](CCCNC(=N)N)NC(=O)CNC(=O)[C@@H](N)CCCNC(=N)N)C(C)C)C(C)C)C(=O)N[C@@H](CCCCN)C(=O)O)C(C)C [Peptide B4010] (I: H-RGRKVVRRKKK-OH / II: H-RGRKVVRRK / III: H-RGRKVVRR / IV: H-RGRKVVRR; amide I:9-IV:C, I:10-II:C, II:9-III:C; N-terminus and C-terminus assumed)
- time to complete killing ([1]; 4×MIC): 30 min
- killing ([1]; ATCC 10231, 1 h, 1): ~91%
- killing ([1]; ATCC 10231, 48 h, 2): ~97%
- time to 3 log reductions of viable cells ([1]; ATCC and clinical isolates, 2× or 4×MIC): less than 1 h
- time to 4 log reduction (99.99%) in viable cells ([1]; 4×MIC): ≤ 20 minutes
- time to 4 log reduction (99.99%) in viable cells ([1]; 8×MIC): ≤ 10 minutes
- time to complete killing ([1]; C. albicans DF2672R, 2×MIC): 60 min
- candidacidal activity (C. albicans; 22 μM): no loss of activity
- candidacidal activity (C. albicans; 4.4 and 8.8 μM): moderately suppressed
- MIC ([2]; 5% human serum): 5.5 µM (≈ 25.1 µg/mL)
- MIC ([2]; without serum): 0.34 µM (≈ 1.55 µg/mL)
- MIC (S. cerevisiae; RH448, Wildtype, Ergosterol (77%)): 5.5 µM (≈ 25.1 µg/mL)
- MIC (S. cerevisiae; RH5684, erg6Δ): 2.8 µM (≈ 12.8 µg/mL)
- MIC (S. cerevisiae; RH5812, erg2Δ): 1.4 µM (≈ 6.39 µg/mL)
- MIC (S. cerevisiae; RH5930, erg3Δerg6Δ): 1.4 µM (≈ 6.39 µg/mL)
- MIC (S. cerevisiae; RH6826, 7-deoxycholesterol): 2.8 µM (≈ 12.8 µg/mL)
- MIC (S. cerevisiae; RH6827, Campasterol): 2.8 µM (≈ 12.8 µg/mL)
- MIC (S. cerevisiae; RH6829, Cholesterol): 2.8 µM (≈ 12.8 µg/mL)
- decrease in MIC of ergΔ mutants compared to the wild type (S. cerevisiae; all the ergΔ mutants): 2-4 fold
- decrease in MIC compared to the wild type (S. cerevisiae; erg2Δ, erg3Δ, erg3Δerg6Δ and erg4Δerg5Δ): 4 folds
- increased sensitivity compared to the wild type (S. cerevisiae; erg2Δerg6Δ and erg6Δ): 2 fold
- SG uptake (permeation) (C. albicans (ATCC 10231); 1×MIC): 24%
- cells membrane compromised (C. albicans (ATCC 10231); 2×MIC, 10 mins): About 70%
- dye uptake (C. albicans (ATCC 10231); 4×MIC, within 25 mins): > 90%
- SG uptake (permeation) (C. albicans (ATCC 10231); ½×MIC): 13%
- calcein release [3]: about 68%
